In patent US20080090805A1, “CB-1 MODULATING COMPOUNDS AND THEIR USE” (ACADIA PHARMACEUTICALS INC., priority 2005, published 2008):
Where two headings read alike, the source gives them in different places.

Biological target: CB1 (mutant) (Homo sapiens, UniProt P21554)
Assay: R-SAT functional receptor assay, CB1 (mutant, truncated after amino acid 417)
Type: cell-based
Details: R-SAT CB1; for IC50: receptor form (mutant or wild-type) not stated; for Emax: read-out: % Inhibition
[1] = Appendix A, read-out: pIC50 (converted)
[2] = Appendix A, receptor form not stated, relative to SR141716 (100%)

Chain of CB1 (mutant) (P21554 1-417, change not shown): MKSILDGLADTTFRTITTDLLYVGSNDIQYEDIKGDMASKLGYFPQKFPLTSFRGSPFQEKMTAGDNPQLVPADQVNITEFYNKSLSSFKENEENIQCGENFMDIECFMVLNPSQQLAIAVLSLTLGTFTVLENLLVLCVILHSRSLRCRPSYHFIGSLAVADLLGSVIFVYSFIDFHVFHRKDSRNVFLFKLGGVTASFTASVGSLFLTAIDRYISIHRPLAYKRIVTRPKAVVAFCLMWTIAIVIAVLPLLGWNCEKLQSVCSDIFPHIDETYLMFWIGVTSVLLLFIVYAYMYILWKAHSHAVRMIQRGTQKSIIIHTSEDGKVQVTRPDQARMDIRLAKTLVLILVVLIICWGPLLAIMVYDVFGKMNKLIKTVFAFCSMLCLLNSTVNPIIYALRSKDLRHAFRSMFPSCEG

Row | SMILES | IC50 [1] [nM] | Emax [2] [%] | % Inhibition [2] [%] | IC50 (pIC50, Appendix A) [nM]
1 | O=C(NCc1cccnc1)c1ccc2c(c1)N=C(c1ccc(Br)cc1)c1ccccc1S2 [drawing 1007] | 25.1 | 106 | – | –
2 | O=C(NN1CCCCCC1)c1ccc2c(c1)N=C(c1ccc(F)cc1)c1ccccc1S2 [drawing 1009] | 25.1 | 92 | – | –
3 | CCCCNC(=O)c1ccc2c(c1)N=C(c1ccc(Cl)s1)c1ccc(F)cc1S2 [drawing 1010] | 501 | 101 | – | –
4 | O=C(NCc1ccccc1Cl)c1ccc2c(c1)N=C(N1CCCCC1)c1ccccc1S2 [drawing 1013] | 25.1 | 117 | – | –
5 | O=C(NCc1ccccc1)c1ccc2c(c1)N=C(c1ccccc1F)c1ccccc1S2 [drawing 1015] | 25.1 | 96 | – | –
6 | CC(CNC(=O)c1ccc2c(c1)N=C(N1CCCCC1)c1ccccc1S2)c1ccccc1 (centres unmarked) [drawing 1017] | 25.1 | 105 | – | –
7 | O=C(NCCc1ccccc1)c1ccc2c(c1)N=C(N1CCCCC1)c1ccccc1S2 [drawing 1019] | 25.1 | 106 | – | –
8 | CC(C)CNC(=O)c1ccc2c(c1)N=C(c1ccccn1)c1ccccc1S2 [drawing 1021] | 25.1 | 96 | – | –
9 | O=C(NCCc1ccccc1)c1ccc2c(c1)N=C(c1ccccc1)c1ccccc1S2 [drawing 1023] | 25.1 | 106 | – | –
10 | COCCNC(=O)c1ccc2c(c1)N=C(c1cccc(F)c1)c1ccccc1S2 [drawing 1025] | 25.1 | 115 | – | –
11 | O=C(NCCc1cccnc1)c1ccc2c(c1)N=C(c1ccc(Cl)s1)c1ccccc1S2 [drawing 1029] | 25.1 | 110 | – | –
12 | O=C(NCCc1ccncc1)c1ccc2c(c1)N=C(c1ccc(F)cc1)c1ccccc1S2 [drawing 1031] | 25.1 | 94 | – | –
13 | O=C(NCCc1cccnc1)c1ccc2c(c1)N=C(c1ccc(F)cc1)c1ccccc1S2 [drawing 1033] | 25.1 | 119 | – | –
14 | O=C(NCc1cccnc1)c1ccc2c(c1)N=C(c1ccccc1F)c1ccccc1S2 [drawing 1035] | 25.1 | 114 | – | –
15 | O=C(NCc1cccs1)c1ccc2c(c1)N=C(c1ccccn1)c1ccccc1S2 [drawing 1037] | 25.1 | 118 | – | –
16 | Cc1ccc(CNC(=O)c2ccc3c(c2)N=C(c2ccc(Cl)cc2F)c2ccccc2S3)o1 [drawing 1039] | 31.6 | 76 | – | –
17 | O=C(NN1CCCCCC1)c1ccc2c(c1)N=C(c1ccc(Cl)cc1)c1ccccc1S2 [drawing 1041] | 31.6 | – | 96 | –
18 | Cc1ccsc1C1=Nc2cc(C(=O)NN3CCCCC3)ccc2Sc2ccccc21 [drawing 1045] | 31.6 | 100 | – | –
19 | Cc1ccsc1C1=Nc2cc(C(=O)NCCC(F)(F)F)ccc2Sc2ccccc21 [drawing 1047] | 31.6 | 101 | – | –
20 | O=C(NCCc1ccccn1)c1ccc2c(c1)N=C(c1ccc(Cl)cc1)c1ccccc1S2 [drawing 1049] | 31.6 | 93 | – | –
21 | CCCC1=Nc2cc(C(=O)NCCc3cc(OC)ccc3OC)ccc2Sc2ccccc21 [drawing 1051] | 31.6 | 98 | – | –
22 | CC(C)CCNC(=O)c1ccc2c(c1)N=C(c1ccccc1Cl)c1ccccc1S2 [drawing 1053] | 31.6 | 105 | – | –
23 | CCCNC(=O)c1ccc2c(c1)N=C(c1ccc(Br)cc1)c1ccccc1S2 [drawing 1055] | 31.6 | 92 | – | –
24 | O=C(NCc1ccc(Cl)cc1Cl)c1ccc2c(c1)N=C(c1ccc(F)cc1)c1ccccc1S2 [drawing 1057] | 31.6 | 96 | – | –
25 | O=C(NCc1ccccc1Cl)c1ccc2c(c1)N=C(C1CCCCC1)c1ccccc1S2 [drawing 1059] | 31.6 | 91 | – | –

Row | SMILES | IC50 [1] [nM] | Emax [2] [%] | % Inhibition [2] [%] | IC50 (pIC50, Appendix A) [nM]
26 | O=C(NC1CCCCC1)c1ccc2c(c1)N=C(c1ccc(F)cc1)c1ccccc1S2 [drawing 1065] | 31.6 | 111 | – | –
27 | CC(C)CCNC(=O)c1ccc2c(c1)N=C(c1ccccc1F)c1ccccc1S2 [drawing 1067] | 31.6 | 117 | – | –
28 | O=C(NCCc1cccc(Cl)c1)c1ccc2c(c1)N=C(c1ccccc1)c1ccccc1S2 [drawing 1069] | 31.6 | 102 | – | –
29 | O=C(NCCc1ccccn1)c1ccc2c(c1)N=C(c1ccc(Cl)c(Cl)c1)c1ccccc1S2 [drawing 1077] | 31.6 | 93 | – | –
30 | CC(C)NC(=O)c1ccc2c(c1)N=C(c1ccc(F)cc1)c1ccccc1S2 [drawing 1079] | 31.6 | 97 | – | –
31 | COCCNC(=O)c1ccc2c(c1)N=C(c1ccc(Br)cc1)c1ccccc1S2 [drawing 1081] | 31.6 | 69 | – | –
32 | O=C(NCc1cccc(Cl)c1)c1ccc2c(c1)N=C(c1ccccc1F)c1ccccc1S2 [drawing 1083] | 31.6 | 99 | – | –
33 | O=C(NCCc1ccc(Cl)cc1)c1ccc2c(c1)N=C(c1ccccc1F)c1ccccc1S2 [drawing 1085] | – | 101 | – | 31.6
34 | O=C(NCc1ccccc1Cl)c1ccc2c(c1)N=C(c1ccc(Cl)cc1)c1ccccc1S2 [drawing 1089] | – | 95 | – | 31.6
35 | O=C(NCc1cccnc1)c1ccc2c(c1)N=C(c1ccc(Cl)cc1)c1ccccc1S2 [drawing 1093] | 31.6 | 88 | – | –
36 | O=C(NCCc1ccncc1)c1ccc2c(c1)N=C(c1ccc(Cl)c(Cl)c1)c1ccccc1S2 [drawing 1095] | 31.6 | 119 | – | –
37 | O=C(NCCc1ccncc1)c1ccc2c(c1)N=C(c1cccc(F)c1)c1ccccc1S2 [drawing 1097] | – | 106 | – | 31.6
38 | CCOC(=O)N1CCC(NC(=O)c2ccc3c(c2)N=C(c2ccc(Cl)cc2)c2ccccc2S3)CC1 [drawing 1101] | 31.6 | 109 | – | –
39 | CC(NC(=O)c1ccc2c(c1)N=C(c1ccc(Cl)cc1)c1ccccc1S2)c1ccccc1 (centres unmarked) [drawing 1107] | 39.8 | 88 | – | –
40 | CCCCNC(=O)c1ccc2c(c1)N=C(c1ccc(Cl)s1)c1ccc(Cl)cc1S2 [drawing 1109] | 39.8 | 104 | – | –
41 | CCCCNC(=O)c1ccc2c(c1)N=C(c1ccc(Cl)cc1)c1cc(F)ccc1S2 [drawing 1111] | 39.8 | 98 | – | –
42 | CC(C)CNC(=O)c1ccc2c(c1)N=C(c1ccc(Cl)cc1)c1ccc(Cl)cc1S2 [drawing 1113] | 39.8 | 106 | – | –
43 | CCCC1=Nc2cc(C(=O)NC3CCCC(C)C3C)ccc2Sc2ccccc21 (centres unmarked) [drawing 1115] | – | 101 | – | 39.8
44 | CCN(CCNC(=O)c1ccc2c(c1)N=C(c1ccccc1F)c1ccccc1S2)c1ccccc1 [drawing 1117] | 39.8 | 100 | – | –
45 | O=C(NCCc1ccc(Cl)cc1)c1ccc2c(c1)N=C(N1CCC(F)CC1)c1ccccc1S2 [drawing 1119] | 39.8 | 103 | – | –
46 | O=C(NCc1ccccc1Cl)c1ccc2c(c1)N=C(c1ccc(F)cc1)c1ccccc1S2 [drawing 1121] | 39.8 | 89 | – | –
47 | O=C(NCc1ccc(Cl)cc1Cl)c1ccc2c(c1)N=C(N1CCCCC1)c1ccccc1S2 [drawing 1123] | 39.8 | 101 | – | –
48 | O=C(NCc1ccc(F)cc1)c1ccc2c(c1)N=C(c1ccc(Cl)cc1)c1ccccc1[S+]2[O-] (centres unmarked) [drawing 1125] | 39.8 | 98 | – | –
49 | O=C(NN1CCCCC1)c1ccc2c(c1)N=C(c1cccc(Cl)c1)c1ccccc1S2 [drawing 1127] | 39.8 | 106 | – | –
